Test results published in PMC8850458, “The AUTOTAC chemical biology platform for targeted protein degradation via the autophagy-lysosome system” (Nature Communications, 2022).
Where “and” joins values, the source holds several entries; their conditions need not be identical. Equal entries are not always repeated.

Legend:
tauP301L = tauP301L (Homo sapiens, UniProt P10636, P618L); experiment: WB degradation of tauP301L in SH-SY5Y-tauP301L cells; assay type: cell-based; settings: for Tau normalized to GAPDH and control, AVG %: average of N=3
Method in brief: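 Lysates in SDS/LDS or Laemmli sample buffer were separated by SDS-PAGE and blotted to PVDF. Target protein was detected with primary antibodies, HRP secondary and ECL on X-ray film, and degradation quantified by band densitometry.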

[1] = tested on: tauP301L inclusion bodies; experiment: ICC of TauP301L-GFP autophagic targeting in HeLa cells; assay type: cell-based; settings: Fig. 5k, compound +HCQ; for TauP301L-GFP / LC3 colocalization, cells counted per 50 cells (individual replicates): count out of 50 cells
Description: Fig. 5 Selective degradation of pathological aggregation-prone tau species by aggregate-binding AUTOTAC. a–c WB in SH-SY5Y-tauP301L cells treated with PBA-1105, PBA, or YTK-1105 at the indicated concentrations. d Densitometry of (a, b, and c) (n = 3 biologically independent experiments). e–g Same as (a–c) but with Anle138b-F105, Anle138b, or YTK-105. (h) Densitometry of (e, f, and g) (n = 3 biologically independent experiments). i WB in SH-SY5Y-tauP301L cells treated with PBA-1105 (0.1 μM) at the indicated time points. j ICC of HeLa cells expressing recombinant TauP301L-GFP and treated with the indicated compounds (1 μM, 24 h) and HCQ (10 μM, 24 h). Scale bar, 10 μm. k Quantification of (j) (n = 3 biologically independent experiments each counting 50 cells). l In vivo oligomerization assay in SH-SY5Y-tauP301L cells treated with okadaic acid (15 nM, 24 h) and the indicated compounds (0.1 μM, 24 h). m Triton X-100-fractionation assay in SH-SY5Y-tauP301L cells treated with a combination of HCQ (10 μM, 24 h), okadaic acid (15 nM, 24 h) or PBA-1105 (0.1 μM, 24 h). Data are presented as mean values ± SD where relevant. P-values (from a two-sided unpaired t test): **P < 0.00821. Source data are provided with this paper.
Cells were cultured on coverslips coated with poly-L-lysine (Sigma) to observe cellular localization of proteins. Using 4% paraformaldehyde in PBS (pH 7.4), the cells were fixed for 15 min at room temperature and washed three times for 5 min with PBS. After fixing, the cells were permeabilized with 0.5% Triton X-100 in PBS solution for 15 min and washed three times with PBS for 5 min. The cells were blocked containing 2% BSA in PBS solution for 1 h at room temperature. Subsequently, the cells were incubated with primary antibody diluted in 2% BSA/PBS solution overnight at 4 °C, followed by washing the cells three times for 10 min with PBS and incubated with Alexa Fluor-conjugated secondary antibody diluted in 2% BSA/PBS for 30 min at room temperature. Using a DAPI-containing mounting medium (Vector Laboratories), the coverslips were mounted on glass slides. Confocal images were taken by laser scanning confocal microscope 510 Meta (Zeiss) and analyzed by Zeiss LSM Image Browser (ver. 4.2.0.121). […] Quantification results are shown as mean ± S.D. or S.E.M. of three independent experiments

p62 = target: T1, p62 (Homo sapiens, UniProt Q13501); experiment: In vitro p62 oligomerization assay; assay type: biochemical; settings: HEK293T lysate
T1 construct: expressed in transfected cells; host or cells: HEK293T, transient; whole lysate used
Description: HEK293T cells were transiently transfected with a plasmid encoding p62-myc/his fusion proteins. Cells were resuspended in lysis buffer [50 mM HEPES (pH 7.4), 0.15 M KCl, 0.1% Nonidet P-40), 10% glycerol, containing a mixture of protease inhibitors and phosphatase inhibitor (Abcam)]. To lyse the cells, 10 cycles of freezing and thawing was done, followed by centrifugation at 13,000 × g for 20 min at 4 °C. Using a BCA assay, the protein concentration of the supernatant was measured. A total of 1 μg of protein was incubated with 1 mM of p62-ZZ ligands in the presence of 100 μM bestatin (Enzo) at room temperature for 2 h. After incubation, each sample was mixed with non-reducing 4X LDS sample buffer, heated at 95 °C for 10 min, and resolved using 4–20% gradient SDS-PAGE (Bio-Rad). To monitor the conversion of p62 monomers into oligomers or aggregates, IB assay was performed using anti-myc antibody.

wild-type desmin = target: T2, wild-type desmin (Homo sapiens, UniProt P17661); experiment: WB degradation of wild-type desmin in HeLa cells; assay type: cell-based; settings: exogenously expressed
T2 construct: expressed in transfected cells; host or cells: HeLa, transient
Description: Adherent cells were washed with phosphate-buffered saline (PBS) and cell pellets were lysed in SDS-based sample buffer (277.8 mM Tris-HCI, pH 6.8, 4.4% LDS, 44.4% (v/v) glycerol) containing beta-mercaptoethanol. Alternatively, cell pellets or protein supernatants were lysed in 5X Laemmli sample buffer. Whole-cell lysates were separated using SDS-PAGE, and transferred onto polyvinyllidene difluoride membranes at 100 V for 2 h at 4 °C. The membrane was incubated with a blocking solution consisting 4% skim milk in PBS solution for 30 min at room temperature and incubated with primary antibodies overnight, followed by incubation with host-specific HRP-conjugated secondary antibodies (1:10000 dilution). For signal detection, the membrane was developed with a mixture of ECL solution (Thermo Fisher Scientific) using X-ray films. Densitometry of developed bands was measured and analyzed with ImageJ (NIH, Bethesda).
Supplementary Fig. 5. AUTOTACs selectively target pathological aggregation-prone proteins for autophagic degradation. (a) WB in HEK293T cells treated with PBA-1105 (1 μM) and MG132 (1 μM, 24 h) at the indicated time points. (b) ICC of HeLa cells treated with the indicated compounds (1 μM, 24 h). Scale bar, 10 μm. (c) WB in HEK293T cells treated with PBA-1105 (500 nM, 24 h) and MG132 (1 μM, 24 h) under siRNA-mediated knockdown of p62 or ATG7 (20 nM, 48 h). (d) ICC in HeLa cells transiently expressing WIPI2-GFP and treated with Anle138b-F105 (1 μM, 24 h). Scale bar, 10 μm. (e) ICC in HeLa cells treated with […]
nM, 24 h). (g, h) WB in HeLa cells transiently expressing wild type or mutant (L385P) desmin-flag with LacZ-myc and treated with PBA-1105, PBA-1105b or Anle138b-F105 at the […]

[2] = densitometry, dosage degradation, SH-SY5Y-Tau-TiFC, 1 nM
[3] = densitometry, dosage degradation, SH-SY5Y-Tau-TiFC, 1 nM, read-out: (Tau normalized to GAPDH) normalized to control, percentage (individual replicates N=1, N=2, N=3)
[4] = densitometry, dosage degradation, SH-SY5Y-Tau-TiFC, 10 nM
[5] = densitometry, dosage degradation, SH-SY5Y-Tau-TiFC, 100 nM
[6] = densitometry, dosage degradation, SH-SY5Y-Tau-TiFC, 1 uM
[7] = densitometry, dosage degradation, SH-SY5Y-Tau-TiFC, 10uM

Sequence of tauP301L (P10636 1-441 isoform P10636-8 P301L): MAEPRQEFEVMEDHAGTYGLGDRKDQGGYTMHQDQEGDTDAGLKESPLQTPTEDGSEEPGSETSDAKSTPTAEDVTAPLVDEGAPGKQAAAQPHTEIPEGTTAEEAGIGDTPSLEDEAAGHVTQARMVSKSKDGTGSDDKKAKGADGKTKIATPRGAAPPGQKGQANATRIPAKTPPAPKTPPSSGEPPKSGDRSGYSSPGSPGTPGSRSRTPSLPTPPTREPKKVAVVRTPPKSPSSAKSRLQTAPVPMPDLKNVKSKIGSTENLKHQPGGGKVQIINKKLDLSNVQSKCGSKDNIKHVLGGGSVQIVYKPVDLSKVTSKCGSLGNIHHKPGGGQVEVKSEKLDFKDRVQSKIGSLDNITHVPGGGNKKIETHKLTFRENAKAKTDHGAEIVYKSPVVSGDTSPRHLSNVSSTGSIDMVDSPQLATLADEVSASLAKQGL
T1 sequence (Q13501 whole entry): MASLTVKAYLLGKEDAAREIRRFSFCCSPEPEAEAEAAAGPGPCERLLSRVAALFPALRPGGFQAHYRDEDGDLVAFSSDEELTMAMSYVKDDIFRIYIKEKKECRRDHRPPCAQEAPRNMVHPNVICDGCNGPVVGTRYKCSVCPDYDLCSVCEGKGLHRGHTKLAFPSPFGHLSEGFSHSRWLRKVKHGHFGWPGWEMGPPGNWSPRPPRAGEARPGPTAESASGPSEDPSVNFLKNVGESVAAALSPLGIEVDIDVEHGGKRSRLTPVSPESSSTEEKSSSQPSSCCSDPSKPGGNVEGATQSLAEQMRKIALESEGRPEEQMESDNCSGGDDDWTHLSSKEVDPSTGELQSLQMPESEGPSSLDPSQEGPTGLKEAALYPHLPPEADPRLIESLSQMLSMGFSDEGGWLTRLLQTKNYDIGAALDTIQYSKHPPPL
T2 sequence (P17661 whole entry): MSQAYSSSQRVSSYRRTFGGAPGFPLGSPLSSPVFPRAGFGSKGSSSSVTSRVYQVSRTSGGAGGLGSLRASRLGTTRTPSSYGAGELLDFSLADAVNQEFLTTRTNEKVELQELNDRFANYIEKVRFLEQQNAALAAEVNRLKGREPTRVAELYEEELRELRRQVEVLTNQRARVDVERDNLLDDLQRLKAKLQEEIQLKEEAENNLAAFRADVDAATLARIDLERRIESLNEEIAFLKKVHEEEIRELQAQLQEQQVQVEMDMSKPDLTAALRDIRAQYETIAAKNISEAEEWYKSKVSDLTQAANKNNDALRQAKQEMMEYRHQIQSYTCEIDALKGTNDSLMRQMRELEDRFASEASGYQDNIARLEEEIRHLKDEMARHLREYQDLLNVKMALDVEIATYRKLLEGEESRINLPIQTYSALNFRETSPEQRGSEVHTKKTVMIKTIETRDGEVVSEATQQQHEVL

Compound	Tau normalized to GAPDH and control, AVG % (tauP301L; [2]) [%]	remaining activity at 0.001 µM (tauP301L; [3]) [%]	Tau normalized to GAPDH and control, AVG % (tauP301L; [4]) [%]	Tau normalized to GAPDH and control, AVG % (tauP301L; [5]) [%]	Tau normalized to GAPDH and control, AVG % (tauP301L; [6]) [%]	Tau normalized to GAPDH and control, AVG % (tauP301L; [7]) [%]	remaining activity at 10 µM (tauP301L; densitometry, dosage degradation, SH-SY5Y-Tau-TiFC, 10uM, read-out: (Tau normalized to GAPDH) normalized to control, percentage (individual replicates N=1, N=2, N=3)) [%]	TauP301L-GFP / LC3 colocalization, AVG of cells per 50 cells [1]	TauP301L-GFP / LC3 colocalization, percentage AVG [1] [percentage]	TauP301L-GFP / LC3 colocalization, cells counted per 50 cells (individual replicates) ([1]; listed as PBA)	p62 self-oligomerization (p62)	degradation of wild-type desmin (wild-type desmin)	DC50 (tauP301L; SH-SY5Y-tauP301L cells) [nM]	Dmax,24 hr of tauP301L degradation (tauP301L; SH-SY5Y-tauP301L cells) [nM]	Tau normalized to GAPDH and control, AVG % (tauP301L; densitometry, dosage degradation, SH-SY5Y-Tau-TiFC, 2.5uM) [%]	remaining activity at 2.5 µM (tauP301L; densitometry, dosage degradation, SH-SY5Y-Tau-TiFC, 2.5uM, read-out: (Tau normalized to GAPDH) normalized to control, percentage (individual replicates N=1, N=2, N=3)) [%]	Tau normalized to GAPDH and control, AVG % (tauP301L; densitometry, dosage degradation, SH-SY5Y-Tau-TiFC, 5uM) [%]	TauP301L-GFP / LC3 colocalization, cells counted per 50 cells (individual replicates) [1]
O=C(O)CCCc1ccccc1 [4-PBA, 4-phenylbutyric acid]	80.1686	76.8	93.9777	90.7287	84.0643	93.7866	87	13.6667	27.3333	12 and 22 and 7								
O=C(CCCc1ccccc1)NCCOCCOCCOCCNCc1ccc(OCc2ccccc2)c(OCc2ccccc2)c1 [PBA-1105]	46.0558	45	19.6838	23.7212	30.8722	73.3109		33	66		triggered its self-oligomerization	not wild-type desmin	1 to 10	100	20.4143	19.2	12.549	33 and 41 and 25
O[C@H](CNCCOCCOCCOc1ccc(-c2c(-c3ccccc3)nn3c(C(F)(F)F)cc(C(F)(F)F)nc23)cc1)COc1ccc(OCc2ccccc2)c(OCCCc2ccccc2)c1 [PHTPP-1304]											induced self-oligomerization of p62							
